# Laboratory results as given in patent US10117946B2, “Self-assembling ultrashort peptides modified with bioactive agents by click chemistry” (Agency for Science, Technology and Research, priority 2012, dated 2018).
# Where “and” joins values, the source holds several entries; their conditions need not be identical. Equal values may be shown once.
# What was measured:
# [1] = system: HeLa (cervical carcinoma) cells; test: Cytotoxicity, colorimetric microculture assay (MTS assay); type: cell-based, human; conditions: 96 h exposure
# Description: (§1) Cytotoxicity of all synthesized compounds was evaluated on two human derived cancer cell lines namely HeLa (cervical carcinoma) and SW480 (colon carcinoma). 4T1 mouse breast cancer cells were also used for evaluation. Cells were first treated with different concentrations of the test compounds and incubated for 96 h at 37° C. Subsequently, the cell viability was measured by means of a colorimetric microculture assay (MTS assay).
# (§2) Human cervical carcinoma cell line HeLa, human colon carcinoma cell line SW480 and mouse breast cancer cell line 4T1 were purchased from the American Type Culture Collection (Manassas, Va., USA). The cell lines were cultured in DME medium (Biopolis shared facilities, A*STAR, SG) supplemented with 10% heat inactivated fetal bovine serum and 1% of mixture of penicillin and streptomycin (Invitrogen, CA, U.S.A). The cells were maintained in a 75 mL cell culture flask (Nunc) at 37° C. in a humidified incubator with 95% air and 5% CO2.
# (§3) Cytotoxicity was determined by means of a colorimetric microculture assay (MTs assay, MTS=[…]) For this purpose, HeLa, SW480, and 4T1 cells were harvested from culture flasks by trypsinization and seeded into 96-well microculture plates in cell densities of 3.5×10^3 cells/well. The cells were allowed to attach for 8 h. Subsequently, cells were exposed to serial dilutions of the test compounds in 150 μL/well complete culture medium for 96 h. Then 25 uL of CellTiter 96® Aqueous one solution reagent was added to the cells, followed by incubation for 2 h at 37° C. After incubation, the absorbance was measured at a wavelength of 499 nm using a microplate reader. The quantity of vital cells was expressed in terms of T/C values in comparison to untreated control microcultures, and 50% inhibitory concentrations (IC50) were calculated from concentration-effect curves by a nonlinear curve fit using Origin Lab 7.5.
# [2] = system: SW480 (colon carcinoma) cells; test: as above; type: cell-based, human; conditions: 96 h exposure
# Description: as §1, §2, §3
# [3] = system: 4T1 mouse breast cancer cells; test: as above; type: cell-based; conditions: 96 h exposure
# Description: as §1, §2
# Cytotoxicity was determined by means of a colorimetric microculture assay (MTs assay, MTS=[…]) For this purpose, HeLa, SW480, and 4T1 cells were harvested from culture flasks by trypsinization and seeded into 96-well microculture plates in cell densities of 3.5×10^3 cells/well. […] After incubation, the absorbance was measured at a wavelength of 499 nm using a microplate reader. […]
# [4] = Gelation ability in water (vortexing, left to stand overnight); type: physicochemical
# Description: To test the gelation ability of compounds 3-8, they were dissolved in water by vortexing and left to stand overnight. […] In contrast, the alkyne-derived peptide P1 gelled in water at a concentration of 30 mg/mL, which is close to the minimal gelation concentration of its parent peptide SEQ ID NO 16 Ac-LIVAGK-NH2 (Ac-LK6-NH2). […] We assume, that the derivatization of the peptides with cisplatin or oxaliplatin and a bulky triazole group interferes with their self-assembly by changing the lipophilicity of the N-terminus of the peptide. However, stable hybrid gels could be formed with up to 40 wt % loading when the parent peptide was used as a matrix.
# 4T1 cells = test: Cell cycle analysis (propidium iodide, flow cytometry); type: cell-based, mouse; conditions: 10 μM, 96 h
# Description: (§4) To further characterize the in vitro efficacy of 3-6, cell cycle analysis and measurement of caspase activity was conducted after incubation with the drug candidates. […] Oxaliplatin coordinates to DNA nucleotides, preventing the cell from crossing the DNA damage check point. […] This is very close to the oxaliplatin control were about 55% of the cells were in a G2/M arrest. […] The fact that all compounds were associated with an increase in the G2/M phase proves that compound 3-6 is able to bind to DNA in the tested cells, although the effect is not as pronounced as in the oxaliplatin control.
# (§5) Cells (3×10^6 cells) were seeded into 10 cm petridishes and allowed to recover for 24 h. The medium was exchanged to serum free DME medium and the cells were allowed to synchronize for 24 h. The medium was later changed to DME medium containing 10% heat inactivated fetal bovine serum and 1% of mixture of penicillin and streptomycin (Invitrogen, CA, U.S.A). Cells were exposed to 10 μM of the test compounds for 96 h. Control and treated cells were collected, washed with PBS, fixed in 70% ice-cold ethanol, and stored at −20° C. To determine cell cycle distributions, cells were transferred to a PBS solution, incubated with 10 μg/mL RNase A for 30 min at 37° C., and treated with 5 μg/mL propidium iodide for 30 min. Fluorescence of individual cells was measured by flow cytometry, […]
# SW480 cells = test: as above; type: cell-based, human; conditions: 10 μM, 96 h
# Description: as §4, §5
# [5] = system: 4T1 breast cancer tumor in BALB/c mice; test: In vivo therapeutic efficacy, intratumoral injection, tumor volume; set-up: species or system mouse; conditions: for Tumor volume, Significant? vs. PBS, Day 14: Holm-Sidak, overall significance level 0.05, comparator PBS group
# Excerpt: (§6) Female BALB/c mice were divided into four groups for treatment (PBS group and Ac-LIVAGK-NH2 (SEQ ID NO. 16 acylated and amidated) hydrogel group as negative controls, oxaliplatin as positive control and test compound 3 as a hybrid hydrogel with Ac-LIVAGK-NH2 (SEQ ID NO. 16 acylated and amidated)). Each group comprised of 9 mice. Tumour growth was initiated via a subcutaneous injection of 1 million 4T1 cells into the mouse flank. Seven days after cell injection, compound 3 was directly injected into the tumor using Ac-LIVAGK-NH2 (SEQ ID NO. 16 acylated and amidated), its parent peptide, as gel matrix. The same volume was accordingly injected into the other three groups. As a first dose 15 mg/kg oxaliplatin was used, which is equivalent to 44 mg/kg of compound 3. A re-injection was performed on day 21 of the experiment. The animals were sacrificed on day 28 and final tumor size was measured.
# (§7) Adult female Balb/c mice used in this study (weight 20 g; aged 6-8 weeks) were provided by Biological Resource Center (BRC), A*Star, Biopolis, Singapore. For tumor establishment, 1×10^6 mouse 4T1 breast cancer cells were injected subcutaneously into the flank of Balb/c mice (designated as day 0). To investigate the effect of the mixture of Oxaliplatin and hydrogel, the tumor-inoculated animals were divided into 4 groups (n=9 per group) on day 7 post-tumor inoculation and received an intratumor injection of sample solutions: phosphate buffered saline (PBS), Ac-LIVAGK-NH2 (SEQ ID NO. 16 acylated and amidated) (12.5 mg/mL) oxaliplatin (15 mg/kg), 3 (44 mg/kg) and Ac-LIVAGK-NH2 (SEQ ID NO. 16 acylated and amidated) (12.5 mg/mL). 100 μL of each sample were injected directly into the tumor. The hydrogels were prepared prior to injection by dissolving the peptide in 1×PBS and vortexing for 1 min. The sample containing 3 was prepared in a similar manner; 3 was dissolved in 1×PBS and the resulting solution was added to the peptide and vortexed for 1 min. A solid hydrogel was observed about 10 min after sample preparation, to allow in situ gelation inside the tumor.
# Tumor volume was determined by measurement with an electronic digital vernier caliper. Readings were taken once a week until day 28 post-tumor inoculation. The ellipsoid volume of the tumor (mm^3) was then calculated using the formula: Volume=(Width)×(Length)×(height)×π/6.
# (§8) Data are represented as mean±SE. […] A P-value of <0.05 was considered to be statistically significant.
# [6] = In vivo study, body weight comparison of treatment groups; set-up: species or system mouse
# Excerpt: as §6
# The same holds true for day 21 of the experiment. […] This was confirmed by a significant weight difference between the oxaliplatin group and the group treated with compound 3. Therefore, reinjection on day 21 involved only half the initial dose.
# as §7, §8
# [7] = Holm-Sidak pairwise comparison, comparator Ac-LK6-NH2 hydrogel group
# [8] = Holm-Sidak pairwise comparison, comparator PBS group
# [9] = Holm-Sidak, 0.05, comparator Ac-LK6-NH2 hydrogel group
# [10] = Holm-Sidak, 0.05, comparator PBS group
# [11] = comparator Ac-LK6-NH2 hydrogel group
compound,measurement,setting,value
N.N.[Cl][Pt][Cl] [cisplatin],IC50,[1],620 nM and 1000 nM
same,IC50,[2],4000 ± 2500 nM
same,IC50,[3],1500 ± 600 nM
"P1: alkyne-derived (propiolic acid functionalized) peptide; parent peptide Ac-LIVAGK-NH2 (also: propiolic acid alkyne functionalization, site not given here) [Compound P1]",concentration at which the peptide gelled in water,[4],30000 µg/mL
O=C1[O][Pt]2([NH][C@@H]3CCCC[C@H]3[NH]2)[O]C1=O [oxaliplatin],IC50,[1],2000 ± 800 nM
same,IC50,[2],500 nM and 470 nM
same,IC50,[3],1800 ± 500 nM
same,apoptotic cells,4T1 cells,about 30%
same,cells arrested in G2/M,4T1 cells,about 55%
same,apoptotic cells,SW480 cells,no apoptotic cells
same,cells arrested in G2/M,SW480 cells,about 80%
same,"Tumor volume, Diff of Means vs. Ac-LK6-NH2, Day 14",[5]; [7],101.218 mm^3
same,"Tumor volume, Diff of Means vs. Ac-LK6-NH2, Day 28",[5]; [7],1150.053 mm^3
same,"Tumor volume, Diff of Means vs. LK6, Day 21","[5]; Holm-Sidak pairwise comparison, comparator LK6 hydrogel group",487.488 mm^3
same,"Tumor volume, Diff of Means vs. PBS, Day 14",[5]; [8],253.590 mm^3
same,"Tumor volume, Diff of Means vs. PBS, Day 21",[5]; [8],580.470 mm^3
same,"Tumor volume, Diff of Means vs. PBS, Day 28",[5]; [8],855.616 mm^3
same,"Tumor volume, Significant? vs. Ac-LK6-NH2, Day 14",[5]; [9],No
same,"Tumor volume, Significant? vs. Ac-LK6-NH2, Day 28",[5]; [9],Yes
same,"Tumor volume, Significant? vs. LK6, Day 21","[5]; Holm-Sidak, 0.05, comparator LK6 hydrogel group",Yes
same,"Tumor volume, Significant? vs. PBS, Day 21",[5]; [10],Yes
same,"Tumor volume, Significant? vs. PBS, Day 28",[5]; [10],Yes
same,"Tumor volume, Significant? vs. PBS, Day 14",[5],Significant tumor reduction
same,"Tumor volume, Significant? vs. PBS, Day 14",[5]; listed as Oxaliplatin,Yes
same,"Tumor volume, Mean, Day 7","[5]; day 7 post-tumor inoculation = day of first intratumoral injection (baseline), n=9",61.938 mm^3
same,"Tumor volume, Mean, Day 14","[5]; day 14, intratumoral injection day 7: oxaliplatin 15 mg/kg or 3 44 mg/kg in Ac-LIVAGK-NH2 gel, n=9",135.101 mm^3
same,"Tumor volume, Mean, Day 21","[5]; day 21, intratumoral injection day 7: oxaliplatin 15 mg/kg or 3 44 mg/kg in Ac-LIVAGK-NH2 gel, n=9",96.493 mm^3
same,"Tumor volume, Mean, Day 28","[5]; day 28, injection day 7, re-injection day 21 with half the initial dose, n=9",250.650 mm^3
same,"Weight, Significant? vs. Ac-LK6-NH2, Day 20",[6]; [9],Yes
same,"Weight, Significant? vs. Ac-LK6-NH2, Day 28",[6]; [9],Yes
same,"Weight, Significant? vs. PBS, Day 20",[6]; [10],Yes
same,"Weight, Significant? vs. PBS, Day 28",[6]; [10],Yes
same,"Weight, Mean, Day 20","[6]; body weight of BALB/c mice, day 20, injection day 7, n=9",19.754
same,"Weight, Mean, Day 28","[6]; body weight of BALB/c mice, day 28, re-injection day 21 with half dose, n=9",20.593
same,"Weight, Diff of Means vs. Ac-LK6-NH2, Day 20",[6]; [11],2.831
same,"Weight, Diff of Means vs. Ac-LK6-NH2, Day 28",[6]; [11],1.982
same,"Weight, Diff of Means vs. PBS, Day 20",[6]; comparator PBS group,2.813
same,"Weight, Diff of Means vs. PBS, Day 28",[6]; comparator PBS group,1.742
same,"effect on the mice at the administered dose, compared to conjugate 3","[6]; oxaliplatin 15 mg/kg intratumoral, confirmed by significant weight difference",significant deleterious effect
